Source: US20160194299A1 (priority 2013, published 2016)
In brackets after ≈: the same amount, converted by molar mass.

System: Mtb
Assay: microbe, parasite or virus in culture
Format: cell-based, Mycobacterium tuberculosis
Settings: for MIC: Mycobacterium tuberculosis, read-out: MIC (II)

| Compound | MIC | MIC (II) |
| --- | --- | --- |
| CC(=O)Nc1cc(C(=O)Nc2sccc2S(=O)(=O)c2ccccn2)ccn1 [Compound 194] | > 3 µg/mL | – |
| CC(=O)Nc1cc(C(=O)Nc2sccc2S(=O)(=O)c2ccccc2)ccn1 [Compound 156] | > 3 µg/mL | – |
| CCOC(=O)NC(=O)c1ccsc1NC(=O)c1cc2ccccc2n1C [Compound 195] | > 3 µg/mL | – |
| CCOC(=O)NC(=O)c1ccsc1NC(=O)c1ccnc(NC(=O)c2ccc(F)cc2)c1 [Compound 8] | 1 to 3 µg/mL (≈ 2.19 to 6.57 µM) | – |
| CCOC(=O)NC(=O)c1ccsc1NC(=O)c1sc2ncnc(O)c2c1C [Compound 151] | > 3 µg/mL | – |
| CCOC(=O)NC(=O)c1ccsc1NC(=O)c1cnccn1 [Compound 166] | > 3 µg/mL | – |
| CCOC(=O)NC(=O)c1ccsc1NC(=O)c1ccc(Oc2ccc(F)cc2)cc1 [Compound 203] | > 3 µg/mL | – |
| CCOC(=O)NC(=O)c1ccsc1NC(=O)c1cnc(N2CCOCC2)nc1 [Compound 152] | > 3 µg/mL | – |
| CCOCCOCCOC(=O)NC(=O)c1ccsc1NC(=O)c1nc2ccccc2s1 [Compound 206] | > 3 µg/mL | – |
| CCOC(=O)NC(=O)c1c(NC(=O)c2ccnc(NC(C)=O)c2)sc2c1CCN(CC)C2 [Compound 188] | > 3 µg/mL | – |
| CCOC(=O)NC(=O)c1ccsc1NC(=O)c1nc2cc(OC)ccc2s1 [Compound 6] | < 1 µg/mL | – |
| CC(C)c1nnc(NC(=O)c2ccsc2NC(=O)c2nc3ccccc3s2)o1 [Compound 160] | > 3 µg/mL | – |
| CCOC(=O)NC(=O)c1ccsc1NC(=O)c1ccc(C(C)(F)F)nc1 [Compound 157] | > 3 µg/mL | – |
| CCOC(=O)NC(=O)c1ccsc1NC(=O)c1cccc(F)c1 [Compound 172] | > 3 µg/mL | – |
| CCOC(=O)N(C)C(=O)c1ccsc1NC(=O)c1ccnc(NC(C)=O)c1 [Compound 189] | > 3 µg/mL | – |
| CC(=O)Nc1cc(C(=O)Nc2sccc2C(=O)N2CCOCC2)ccn1 [Compound 181] | > 3 µg/mL | – |
| COC(=O)NC(=O)c1ccsc1NC(=O)c1ccc(S(=O)(=O)N2CCCC2)cc1 [Compound 5] | < 1 µg/mL | – |
| CCOC(=O)NC(=O)c1ccsc1NC(=O)c1csc(-c2ccncc2)n1 [Compound 2] | 1 to 3 µg/mL (≈ 2.48 to 7.45 µM) | – |

| Compound | MIC | MIC (II) |
| --- | --- | --- |
| CCOC(=O)NC(=O)c1ccsc1NC(=O)c1ccc(C#N)cc1 [Compound 207] | > 3 µg/mL | – |
| CCOC(=O)NC(=O)c1ccsc1NC(=O)c1ccc2[nH]c(S)nc2c1 [Compound 162] | – | C (key: A: <1 μg/mL; B: 1-3 μg/mL; C: >3 μg/mL) |
| CCOC(=O)NC(=O)c1ccsc1NC(=O)c1ccc(OC)cc1 [Compound 174] | > 3 µg/mL | – |
| CCOC(=O)NC(=O)c1ccsc1NC(=O)c1nn(C)c2ccccc12 [Compound 201] | > 3 µg/mL | – |
| CNC(=O)c1ccsc1NC(=O)c1ccnc(NC(C)=O)c1 [Compound 183] | > 3 µg/mL | – |
| CCOC(=O)NC(=O)c1ccsc1NC(=O)c1ccc2[nH]c(C)nc2c1 [Compound 199] | – | C (key: A: <1 μg/mL; B: 1-3 μg/mL; C: >3 μg/mL) |
| COC(=O)Nc1cc(C(=O)Nc2sccc2C(=O)Nc2ccccn2)ccn1 [Compound 198] | > 3 µg/mL | – |
| CCOC(=O)NC(=O)c1ccsc1NC(=O)c1ccnc(OCC)c1 [Compound 149] | > 3 µg/mL | – |
| C#CCNC(=O)[C@H](CCC1(C)N=N1)NC(=O)CCC(=O)Nc1cc(C(=O)Nc2sccc2C(=O)NC(=O)OCC)ccn1 [Compound 98] | 1 to 3 µg/mL (≈ 1.64 to 4.91 µM) | – |
| CCOC(=O)NC(=O)c1ccsc1NC(=O)c1c(F)ccc(C)c1F [Compound 175] | > 3 µg/mL | – |
| CCOC(=O)NC(=O)c1ccsc1NC(=O)c1ccnc(N)c1 [Compound 163] | > 3 µg/mL | – |
| CCOC(=O)NC(=O)c1ccsc1NC(=O)c1ccncc1 [Compound 170] | > 3 µg/mL | – |
| CCOC(=O)NC(=O)c1c(NC(=O)c2ccnc(NC(C)=O)c2)sc2c1CCCC2 [Compound 185] | > 3 µg/mL | – |
| CCOC(=O)NC(=O)c1ccsc1NC(=O)c1cncnc1 [Compound 164] | > 3 µg/mL | – |
| CCOC(=O)NC(=O)c1ccsc1NC(=O)C1CCCCC1 [Compound 177] | > 3 µg/mL | – |
| CC(=O)Nc1cc(C(=O)Nc2sccc2C(=O)N2CCCCC2)ccn1 [Compound 180] | > 3 µg/mL | – |
| CCOC(=O)NC(=O)c1ccsc1NC(=O)c1cc2cc(Cl)ccc2[nH]1 [Compound 196] | > 3 µg/mL | – |
| CCNC(=O)Nc1cc(C(=O)Nc2sccc2C(=O)NC(=O)OCC)ccn1 [Compound 7] | < 1 µg/mL | – |
